This test addresses T1, acetylcholinesterase (AChE).
T1 construct: gene ace1; native enzyme in collagenase-treated, dissociated terminal abdominal ganglia of males; not purified
As to the kind of experiment: modified Ellman assay, absorbance […] nm. It counts as biochemical, Periplaneta americana. The settings on record: acetylthiocholine (0.1 mM stock), 15 min pre-incubation with bendiocarb, pH 7.2, 30 °C, no menthol; covalent; read-out: ED50 (the source's name). Background: Ellman's reagent forms a yellow product with free thiols.

Turning to `CNC(=O)Oc1cccc2c1OC(C)(C)O2` [bendiocarb], the IC50 came to 100 nM.

The record behind these values is PMC6832705, “Menthol Increases Bendiocarb Efficacy Through Activation of Octopamine Receptors and Protein Kinase A” (Molecules, 2019).
